Assays:
[1] = target: LRRK2, WT (GST-tagged truncated LRRK2) (Homo sapiens (Human), UniProt Q5S007); experiment: LRRK2 kinase assay (Lantha Screen), wild type; assay type: biochemical; conditions: 100 nM LRRKtide, 1 mM ATP, 2 μg/mL enzyme; geometric mean of 2-4 determinations unless otherwise indicated
Procedure: (§1) LRRK2 kinase activity was measured using Lantha Screen technology from Invitrogen. GST-tagged truncated LRRK2 from Invitrogen (Cat #PV4874) was incubated with a fluorescein-labeled peptide substrate based upon ezrin/radixin/moesin (ERM), also known as LRRKtide (Invitrogen cat #PR8976A), in the presence of a dose response of compound. Upon completion, the assay was stopped and detected with a terbium labeled anti-phospho-ERM antibody (Invitrogen, cat #PR8975A). The assay was carried out under the following protocol: The compound dose response was prepared by diluting compound to a top concentration of 0.3 mM in 100% DMSO and serial diluted by half-log in DMSO to give an 11 point curve, 100× final assay concentration. Using Echo acoustic dispensing, 60 nL of compound was transferred to a low volume Corning 384-well assay plate. 3 μL of a working solution of substrate (200 nM LRRKtide, 2 mM ATP) prepared in assay buffer (50 mM HEPES, pH 7.5, 3 mM MgCl2, with 2 mM DTT and 0.01% Brij35 added fresh) was added to the 60 nL compound assay plate. The kinase reaction was started with 3 μL of a working solution of LRRK2 enzyme at a concentration of 4 μg/mL. The final reaction concentrations were 100 nM LRRKtide, 1 mM ATP, 2 μg/mL LRRK2 enzyme and a compound dose response with a top dose of 3 μM. The reaction was allowed to progress at room temperature for 30 minutes and then stopped with the addition of 6 μL of detection buffer (20 mM Tris pH 7.6, 0.01% NP-40, 6 mM EDTA with 2 nM terbium labeled anti-phospho-ERM). After an incubation of 1 hour at room temperature, the plate was read on an Envision with an excitation wavelength of 340 nm and a reading emission at both 520 nm and 495 nm. The ratio of the 520 nm and 495 nm emission was used to analyze the data. Inhibition of mutant G2019S LRRK2 (Invitrogen cat #PV4881) was measured in the exact same method. All final concentrations of substrate ATP and enzyme were the same.

mutant G2019S LRRK2 = mutant G2019S LRRK2 (Homo sapiens (Human), UniProt Q5S007, G2019S); experiment: LRRK2 kinase assay (Lantha Screen), mutant G2019S; assay type: biochemical; conditions: 100 nM LRRKtide, 1 mM ATP, 2 μg/mL enzyme; single determination unless otherwise indicated
Chain of mutant G2019S LRRK2 (Q5S007 970-2527 G2019S): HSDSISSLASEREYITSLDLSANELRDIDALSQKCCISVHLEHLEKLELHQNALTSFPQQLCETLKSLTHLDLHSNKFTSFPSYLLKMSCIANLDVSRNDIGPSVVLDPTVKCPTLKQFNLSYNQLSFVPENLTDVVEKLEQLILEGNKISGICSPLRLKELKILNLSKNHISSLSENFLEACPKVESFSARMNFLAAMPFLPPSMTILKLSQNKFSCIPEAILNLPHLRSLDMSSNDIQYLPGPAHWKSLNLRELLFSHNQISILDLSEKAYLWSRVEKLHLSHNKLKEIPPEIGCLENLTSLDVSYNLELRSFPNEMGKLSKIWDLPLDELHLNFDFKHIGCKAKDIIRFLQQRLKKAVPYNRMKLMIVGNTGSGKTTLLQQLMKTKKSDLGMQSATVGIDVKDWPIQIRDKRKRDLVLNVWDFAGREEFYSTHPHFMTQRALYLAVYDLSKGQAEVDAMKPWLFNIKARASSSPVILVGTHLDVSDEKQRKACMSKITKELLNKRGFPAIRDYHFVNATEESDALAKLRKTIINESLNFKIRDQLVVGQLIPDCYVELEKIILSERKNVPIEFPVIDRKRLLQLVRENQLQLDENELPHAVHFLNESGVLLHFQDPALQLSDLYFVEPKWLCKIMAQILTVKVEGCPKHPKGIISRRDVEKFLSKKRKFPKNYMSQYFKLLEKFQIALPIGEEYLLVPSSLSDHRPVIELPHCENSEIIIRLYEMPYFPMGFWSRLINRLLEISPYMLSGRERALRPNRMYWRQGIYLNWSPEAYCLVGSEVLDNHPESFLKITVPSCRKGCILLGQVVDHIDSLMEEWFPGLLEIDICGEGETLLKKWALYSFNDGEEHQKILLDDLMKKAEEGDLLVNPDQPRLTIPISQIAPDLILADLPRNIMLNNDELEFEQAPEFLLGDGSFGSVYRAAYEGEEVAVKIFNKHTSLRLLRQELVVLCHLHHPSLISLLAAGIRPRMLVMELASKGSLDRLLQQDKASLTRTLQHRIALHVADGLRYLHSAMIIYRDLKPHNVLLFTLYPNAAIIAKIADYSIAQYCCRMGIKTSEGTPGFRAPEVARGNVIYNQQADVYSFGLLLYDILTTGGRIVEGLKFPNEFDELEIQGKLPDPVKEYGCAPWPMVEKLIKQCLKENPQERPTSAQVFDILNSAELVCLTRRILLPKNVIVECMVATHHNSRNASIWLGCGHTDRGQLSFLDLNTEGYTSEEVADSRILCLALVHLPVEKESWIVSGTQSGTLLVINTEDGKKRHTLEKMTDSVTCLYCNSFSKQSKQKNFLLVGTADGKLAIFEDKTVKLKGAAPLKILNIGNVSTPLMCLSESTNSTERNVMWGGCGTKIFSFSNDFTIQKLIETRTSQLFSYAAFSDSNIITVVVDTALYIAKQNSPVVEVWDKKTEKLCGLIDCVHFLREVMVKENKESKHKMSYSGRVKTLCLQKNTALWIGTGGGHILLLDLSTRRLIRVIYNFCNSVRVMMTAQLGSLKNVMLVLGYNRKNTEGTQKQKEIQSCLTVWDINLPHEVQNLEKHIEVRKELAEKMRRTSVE
Procedure: as §1

Chain of LRRK2, WT (GST-tagged truncated LRRK2) (Q5S007 970-2527): as the sequence (Q5S007 970-2527 G2019S) above, with S1050G counted along it

Row | SMILES | IC50 [1] | IC50 (mutant G2019S LRRK2)
1 | C[C@@H]1C[C@H](n2c(C3CCC(F)(F)CC3)nc3cnc4ccc(Cl)cc4c32)CCO1 [Example 8, 8-chloro-2-(4,4-difluorocyclohexyl)-1-[(2R,4R)-2-methyltetrahydro-2H-pyran-4-yl]-1H-imidazo[4,5-c]quinoline] | 15.9 nM | 12.1 nM
2 | CC1(C)CC(n2c(C3CCC(F)C3)nc3cnc4ccc(C#N)cc4c32)CCO1 (centres unmarked) [Example 40, 1-(2,2-dimethyltetrahydro-2H-pyran-4-yl)-2-(3-fluorocyclopentyl)-1H-imidazo[4,5-c]quinoline-8-carbonitrile] | 7.14 nM | 4.33 nM
3 | C[C@@H]1C[C@H](n2c(C3CCOCC3)nc3cnc4ccc(Cl)cc4c32)CCO1 [Example 7, 8-chloro-1-[(2R,4R)-2-methyltetrahydro-2H-pyran-4-yl]-2-(tetrahydro-2H-pyran-4-yl)-1H-imidazo[4,5-c]quinoline] | 16.3 nM | 18.2 nM
4 | CN1CC[C@@H](n2c(C3CCC(F)C3)nc3cnc4ccc(F)cc4c32)C1 (stereo partly drawn) [Example 34, 8-fluoro-2-[cis-3-fluorocyclopentyl]-1-[(3R)-1-methylpyrrolidin-3-yl]-1H-imidazo[4,5-c]quinoline] | 59.6 nM | 77 nM
5 | CN1CC[C@@H](n2c(C3CCC(F)C3)nc3cnc4ccc(C#N)cc4c32)C1 (stereo partly drawn) [Example 32, 2-[cis-3-fluorocyclopentyl]-1-[(3R)-1-methylpyrrolidin-3-yl]-1H-imidazo[4,5-c]quinoline-8-carbonitrile] | 19.6 nM | 37.9 nM
6 | CN1CC(n2c(C3CCC(F)C3)nc3cnc4ccc(C#N)cc4c32)C(F)(F)C1 (centres unmarked) [Example 59, 1-(4,4-difluoro-1-methylpyrrolidin-3-yl)-2-(3-fluorocyclopentyl)-1H-imidazo[4,5-c]quinoline-8-carbonitrile] | 30.5 nM | 141 nM
7 | C[C@@H]1C[C@H](n2c(C3CCC(F)(F)C3)nc3cnc4ccc(Cl)cc4c32)CCO1 (stereo partly drawn) [Example 11, 8-chloro-2-(3,3-difluorocyclopentyl)-1-[(2R,4R)-2-methyltetrahydro-2H-pyran-4-yl]-1H-imidazo[4,5-c]quinoline] | 20.3 nM | 13.8 nM
8 | C[C@@H]1C[C@H](n2c(C3CCC(F)C3)nc3cnc4ccc(C#N)cc4c32)CCO1 (single isomer, unassigned) [Example 13] | 6.29 nM | 3.84 nM
9 | CN1CC[C@@H](n2c3c(cnc4ccc(C#N)cc43)nc2[C@H]2CC[C@@H](F)CC2)C1 [Example 23, 2-(cis-4-fluorocyclohexyl)-1-[(3R)-1-methylpyrrolidin-3-yl]-1H-imidazo[4,5-c]quinoline-8-carbonitrile] | 10.9 nM | 33 nM
10 | N#CCC1CC(n2c([C@H]3CCOC3)nc3cnc4ccc(Cl)cc4c32)CCO1 (stereo partly drawn) [Example 30, [cis-4-{8-chloro-2-[(3R)-tetrahydrofuran-3-yl]-1H-imidazo[4,5-c]quinolin-1-yl}tetrahydro-2H-pyran-2-yl]acetonitrile] | 6.06 nM | 3.02 nM
11 | CN1CC[C@@H](n2c([C@H]3CCOC3)nc3cnc4ccc(C#N)cc4c32)C1 [Example 25, 1-[(3R)-1-methylpyrrolidin-3-yl]-2-[(3R)-tetrahydrofuran-3-yl]-1H-imidazo[4,5-c]quinoline-8-carbonitrile] | 32.5 nM | 80 nM
12 | C[C@@H]1C[C@H](n2c(C3COC3)nc3cnc4ccc(Cl)cc4c32)CCO1 [Example 12, 8-chloro-1-[(2R,4R)-2-methyltetrahydro-2H-pyran-4-yl]-2-(oxetan-3-yl)-1H-imidazo[4,5-c]quinoline] | 23 nM | 21.2 nM
13 | C[C@@H]1C[C@H](n2c(C3CCC(F)C3)nc3cnc4ccc(C#N)cc4c32)CCO1 (stereo partly drawn) [Example 14, 2-[(cis)-3-fluorocyclopentyl]-1-[(2R,4R)-2-methyltetrahydro-2H-pyran-4-yl]-1H-imidazo[4,5-c]quinoline-8-carbonitrile] | 15.2 nM | 10.8 nM
14 | C[C@@H]1C[C@H](n2c3c(cnc4ccc(C#N)cc43)nc2[C@H]2CC[C@@H](F)CC2)CCO1 [Example 15, 2-(cis-4-fluorocyclohexyl)-1-[(2R,4R)-2-methyltetrahydro-2H-pyran-4-yl]-1H-imidazo[4,5-c]quinoline-8-carbonitrile] | 6.75 nM | 8.3 nM
15 | CO[C@H]1C[C@@H](c2nc3cnc4ccc(Cl)cc4c3n2[C@@H]2CCO[C@H](C)C2)C1 [Example 6, 8-chloro-2-(cis-3-methoxycyclobutyl)-1-[(2R,4R)-2-methyltetrahydro-2H-pyran-4-yl]-1H-imidazo[4,5-c]quinoline] | 19.1 nM | 11.9 nM
16 | CN1CC[C@@H](n2c3c(cnc4ccc(C#N)cc43)nc2[C@H]2C[C@@H](F)C2)C1 [Example 24, 2-(cis-3-fluorocyclobutyl)-1-[(3R)-1-methylpyrrolidin-3-yl]-1H-imidazo[4,5-c]quinoline-8-carbonitrile] | 5.27 nM | 22.4 nM
17 | C[C@@H]1C[C@H](n2c(C3CCCO3)nc3cnc4ccc(Cl)cc4c32)CCO1 (stereo partly drawn) [Example 9, 8-chloro-1-[(2R,4R)-2-methyltetrahydro-2H-pyran-4-yl]-2-(tetrahydrofuran-2-yl)-1H-imidazo[4,5-c]quinoline] | 18.5 nM | 11.3 nM
18 | CN1CC(n2c(C3CCC(F)C3)nc3cnc4ccc(C#N)cc4c32)C(F)(F)C1 (centres unmarked) [Example 60, 1-(4,4-difluoro-1-methylpyrrolidin-3-yl)-2-(3-fluorocyclopentyl)-1H-imidazo[4,5-c]quinoline-8-carbonitrile] | 57.1 nM | 97.4 nM
19 | CC1(C)CC(n2c(C3CCC(F)C3)nc3cnc4ccc(C#N)cc4c32)CCO1 (centres unmarked) [Example 39, 1-(2,2-dimethyltetrahydro-2H-pyran-4-yl)-2-(3-fluorocyclopentyl)-1H-imidazo[4,5-c]quinoline-8-carbonitrile] | 4.65 nM | 4.41 nM
